Measured values taken from patent publication US11840686B2, “Modulation of prekallikrein (PKK) expression” (Ionis Pharmaceuticals, Inc., priority 2013, dated 2023).
Several values for one entry are separate records, joined by “and”; a condition that tells them apart may be missing. Identical values can stand only once. e = 2'-O-(2-methoxyethyl) (MOE); d = 2'-deoxy (DNA)

Assays:
C1-INH mRNA = C1-INH mRNA in liver of mice treated with ISIS 461756 (Example 18); format: in vivo, mouse; details: for Percent inhibition of C1-INH mRNA expression compared to the untreated PBS control: liver, all groups ISIS 461756 25 mg/kg/wk, pretreatment PBS or oligonucleotide 80 mg/kg/wk sc 3 weeks
Experimental: (§1) Vascular permeability induced by ISIS 461756, an antisense oligonucleotide which targets murine C1 inhibitor mRNA, increases vascular permeability in mice and replicates the pathology of hereditary angioedema. The effect of ISIS 482584 on this model was evaluated.
(§2) One group of 8 mice was treated with 40 mg/kg ISIS 482584 administered subcutaneously twice a week for 3 weeks (weekly dose of 80 mg/kg). A second group of 8 mice was treated with 40 mg/kg of the control oligonucleotide, ISIS 141923, administered subcutaneously twice a week for 3 weeks (weekly dose of 80 mg/kg). A third group of 8 mice was treated with PBS administered subcutaneously twice a week for 3 weeks. On day 14, all the groups were treated with 12.5 mg/kg ISIS 461756 administered subcutaneously twice a week for 3 weeks (weekly dose of 25 mg/kg). A control group of mice was treated with PBS administered subcutaneously twice a week for 3 weeks but was not administered ISIS 461756.
(§3) At the end of the treatment period, all the groups were injected with 30 mg/kg of Evans Blue solution into the tail vein. The mice were sacrificed 30 min after the Evans Blue solution administration and colons, feet, ears, and intestines were harvested. The liver was also harvested for RNA analysis.
(§4) RNA was isolated from the liver for RT-PCR analysis of C1-INH and PKK mRNAs. The primer probe set for C1-INH is RTS3218 (forward sequence […], designated herein as SEQ ID NO: 2234; reverse sequence […], designated herein as SEQ ID NO: 2235; probe sequence […], designated herein as SEQ ID NO: 2236). The primer probe set for PKK is RTS3287 (forward sequence […], designated herein as SEQ ID NO: 2237; reverse sequence […], designated herein as SEQ ID NO: 2238; probe sequence […], designated herein as SEQ ID NO: 2239). The results are presented in Table 79 as percent inhibition compared to the PBS control not treated with ISIS 461756.

PKK mRNA [1] = assay: PKK mRNA in liver of mice treated with ISIS 461756 (Example 18); format: in vivo, mouse; details: liver; all groups ISIS 461756 25 mg/kg/wk; pretreatment PBS or oligonucleotide 80 mg/kg/wk sc 3 weeks
Experimental: as §1, §2, §3, §4

[2] = system: vascular permeability induced by ISIS 461756; assay: C1-INH antisense oligonucleotide-induced vascular permeability, Evans Blue OD600 (Example 18); format: in vivo, mouse; details: Evans Blue OD600; all groups ISIS 461756 25 mg/kg/wk; pretreatment PBS or oligonucleotide 80 mg/kg/wk
Experimental: as §1, §2, §3
The harvested tissues from the feet, colon, and intestines were placed in formamide solution overnight to leach out the Evans Blue dye. The formamide solution containing feet tissue was heated to 55° C. and left overnight. The color intensity of the dye-infused formamide solution was then measured at OD600 nm. The data is presented in Table 80 as percent increase or reduction compared to the PBS control not treated with ISIS 461756.

[3] = system: captopril and ISIS 461756-induced vascular permeability; assay: Evans Blue vascular permeability in captopril and ISIS 461756-induced angioedema mouse models (Example 11); format: in vivo; details: captopril Yes, ISIS 461756 Yes; ISIS oligonucleotides 40 mg/kg sc twice a week 4 weeks; HOE-140 30 μg ip
Excerpt: Hereditary angioedema (HAE) is characterized by local swelling and increase in vascular permeability in subcutaneous tissues (Morgan, B. P. N. Engl. J. Med. 363: 581-83, 2010). It is caused by a deficiency of the C1 inhibitor, a protein of the complement system. Two mouse models were used in this study including an established mouse model of C1-INH deficiency and a captopril-induced edema model, both of which cause vascular permeability, a hallmark of HAE. Reversal of vascular permeability is accompanied by increased plasma levels of high molecular weight kininogen (HMWK).
In the first model, angioedema was induced by treatment with Captopril, a known antihypertensive agent, which increases vascular permeability in mice and replicates the pathology of hereditary angioedema.
In the second model, angioedema was induced by treatment with ISIS 461756, an antisense oligonucleotide which targets murine C1 inhibitor mRNA, which increases vascular permeability in mice and replicates the pathology of hereditary angioedema. ISIS 461756 (SEQ ID NO: 2245; […]) is a 5-10-5 MOE gapmer targeting nucleosides 1730-1749 of NM_009776.3 (SEQ ID NO: 2243).
The effect of HOE-140 and ISIS 482584, an antisense oligonucleotide inhibitor of PKK, were evaluated in the Captopril and ISIS 461756-induced mouse models of vascular permeability. Some of the murine groups were treated with HOE-140, a selective antagonist of the bradykinin B2 receptor, which blocks vasodilation and vascular permeability (Cruden and Newby, Expert Opin. Pharmacol. 9: 2383-90, 2008). Other mice were treated with ISIS 482584, which inhibits PKK mRNA expression. The effect of treatment with HOE-140 was compared with the effect of treatment with ISIS 482584.
Group 1 consisted of 4 C57BL/6J-Tyrc-2J mice treated with PBS administered subcutaneously twice a week for 4 weeks. No other treatment was administered to Group 1 which served as a control group to measure the basal level of vascular permeability.
Group 2 consisted of 8 C57BL/6J-Tyrc-2J mice treated with PBS administered subcutaneously twice a week for 4 weeks. At the end of the treatment, the mice were intraperitoneally administered 20 μg of captopril. Group 2 served as a PBS control group for captopril-induced vascular permeability.
(§5) Group 3 consisted of 8 C57BL/6J-Tyrc-2J mice treated with PBS administered subcutaneously twice a week for 4 weeks. On day 14, the mice were treated with 50 mg/kg of the antisense oligonucleotide targeting C1 inhibitor, ISIS 461756, administered subcutaneously twice a week for 2 weeks. At the end of the treatment period, the mice were intraperitoneally administered 20 μg of captopril. Group 3 served as a PBS control group for captopril and ISIS 461756-induced vascular permeability.
Group 4 consisted of 8 C57BL/6J-Tyrc-2J mice treated with PBS administered subcutaneously twice a week for 4 weeks. On day 14, the mice were treated with 50 mg/kg of the antisense oligonucleotide targeting C1 inhibitor, ISIS 461756, administered subcutaneously twice a week for 2 weeks. At the end of the treatment period, the mice were intraperitoneally administered 20 μg of captopril. The mice were then also intraperitoneally administered 30 μg of HOE-140. Group 4 served as a positive control for inhibition of vascular permeability with HOE-140.
as §5, with “5” for “3”, “40 mg/kg of control oligonucleotide ISIS 141923, a 5-10-5 MOE gapmer with no known murine target, ([…]; SEQ ID NO: 2246)” for “PBS”, “a” for “a PBS”, “permeability. […]” for “permeability.”

human PKK mRNA [4] = assay: Antisense inhibition of human PKK mRNA in HepaRG cells, 5,000 nM (Example 2); format: cell-based; details: HepaRG cells, 5,000 nM, electroporation, 24 hours
How it was run: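 Chimeric MOE gapmers with full phosphorothioate backbones were tested once at 5,000 nM in electroporated HepaRG cells. After about 24 hours, quantitative PCR measured PKK mRNA relative to untreated control cells.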

human PKK mRNA [5] = assay: Dose-dependent antisense inhibition of human PKK in HepaRG cells, 0.19-5.00 uM (Example 5); format: cell-based; details: 4 point dose response curve (0.19-5.0 μM), HepaRG cells, electroporation
How it was run: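 PKK mRNA knockdown was measured by real-time PCR (primer probe set RTS3454) about 16 h after electroporating 20,000 HepaRG cells per well with oligonucleotide at four doses from 0.19 to 5.00 μM. Levels were adjusted to RIBOGREEN-measured total RNA, and IC50 values were calculated.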

human PKK mRNA [6] = assay: Human PKK mRNA in liver of human KLKB1 transgenic mice (Example 7); format: in vivo; details: transgenic mice, 2.5, 5.0, 10 or 20 mg/kg/week s.c.; three values for four doses, dose not assignable
How it was run: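 Transgenic mice carrying a 37,390 bp human KLKB1 fragment dosed subcutaneously twice weekly for 3 weeks at 2.5, 5.0, 10 or 20 mg/kg/week; PBS controls. Liver harvested 48 h after the last dose. Human PKK mRNA measured by real-time PCR and expressed as % inhibition versus PBS.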

PKK mRNA [7] = assay: PKK mRNA in cynomolgus monkey liver (Example 8); format: in vivo; details: primates, Example 8
How it was run: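 Cynomolgus monkeys were dosed with human antisense oligonucleotides cross-reactive with the rhesus sequence. Liver RNA taken on day 87 or 88, 48 h after the last dose, was assayed by real-time PCR (primer probe set RTS3455) and normalized to cyclophilin. Values are percent PKK mRNA inhibition versus PBS control.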

PKK protein = PKK protein in cynomolgus monkey plasma by ELISA (Example 8); format: in vivo; details: 40 mg/kg sc
Experimental: Approximately 0.9 mL of blood was collected each time from all available animals at pre-dose, day 17, day 31, day 45, day 59, and day 73, and placed in tubes containing 3.2% sodium citrate. The tubes were centrifuged (3000 rpm for 10 min at room temperature) to obtain plasma. PKK protein levels were measured in the plasma by ELISA. The results are presented in Table 52, expressed as percentage inhibition compared to the PBS control levels.

[8] = Tolerability / clinical observation of cynomolgus monkeys (Example 8); format: in vivo, cynomolgus monkey; details: primates, Example 8
Experimental: Cynomolgus monkeys were treated with ISIS antisense oligonucleotides selected from studies described above. Antisense oligonucleotide efficacy and tolerability were evaluated. The human antisense oligonucleotides tested are cross-reactive with the rhesus genomic sequence (GENBANK Accession No. NW_001118167.1 truncated from nucleotides 2358000 to 2391000 and designated herein as SEQ ID NO: 18).
During the study period, the monkeys were observed a minimum of once daily for signs of illness or distress. Any animal experiencing more than momentary or slight pain or distress due to the treatment, injury or illness was promptly reported to the responsible veterinarian and the Study Director. Any animal in poor health or in a possible moribund condition was identified for further monitoring and possible euthanasia. […] The protocols described in the Example were approved by the Institutional Animal Care and Use Committee (IACUC).

[9] = Liver function markers in cynomolgus monkeys (Example 8); details: cynomolgus monkey plasma, 40 mg/kg sc
Experimental: (§6) Prior to the study, the monkeys were kept in quarantine for a 30-day period, during which the animals were observed daily for general health. The monkeys were 2-4 years old and weighed between 2 and 4 kg. Ten groups of four randomly assigned male cynomolgus monkeys each were injected subcutaneously with ISIS oligonucleotide or PBS. PBS solution or ISIS oligonucleotides at a dose of 40 mg/kg were administered initially with a loading regimen consisting of four doses on the first week of the study (days 1, 3, 5, and 7), followed by a maintenance regimen consisting of once weekly administration starting on Day 14 (weeks 2 to 13). Subcutaneous injections were performed in clock-wise rotations at 4 sites on the back; one site per dose. The injection sites were delineated by tattoo, while sedated using ketamine, and were separated by a minimum of 3 cm.
To evaluate the effect of ISIS oligonucleotides on hepatic function, the monkeys were fasted overnight. Approximately, 1.5 mL of blood samples were collected from all the study groups. Blood was collected in tubes without anticoagulant for serum separation. The tubes were kept at room temperature for a minimum of 90 min and then centrifuged at 3,000 rpm for 10 min. Levels of various liver function markers were measured using a Toshiba 120FR NEO chemistry analyzer (Toshiba Co., Japan).

[10] = Hematological parameters in cynomolgus monkeys (Example 8); details: cynomolgus monkey, 40 mg/kg sc, day 87 or day 88
Experimental: as §6
To evaluate any effect of ISIS oligonucleotides in cynomolgus monkeys on hematologic parameters, blood samples of approximately 1.2 mL of blood was collected pre-dose and on day 87 or day 88 from each of the available study animals in tubes containing K2-EDTA. Samples were analyzed for red blood cell (RBC) count, white blood cells (WBC) count, platelet count, hemoglobin content and hematocrit, using an ADVIA2120i hematology analyzer (SIEMENS, USA).

[11] = Urine protein/creatinine ratio in cynomolgus monkeys (Example 8); details: cynomolgus monkey, 40 mg/kg sc
Experimental: as §6
Kidney function was also assessed by urinalysis. Fresh urine from all animals was collected using a clean cage pan on wet ice. Food was removed overnight the day before fresh urine collection was done but water was supplied. The total protein and creatinine levels were measured using a Toshiba 120FR NEO automated chemistry analyzer (Toshiba Co., Japan) and the protein to creatinine ratio was calculated.

[12] = Kidney function: plasma BUN and creatinine in cynomolgus monkeys (Example 8); details: 40 mg/kg s.c.
[13] = C-reactive protein and complement C3 levels in cynomolgus monkeys (Example 8); details: cynomolgus monkey plasma, 40 mg/kg sc
Experimental: as §6
To evaluate any inflammatory effect of ISIS oligonucleotides in cynomolgus monkeys, the monkeys were fasted overnight. Approximately, 1.5 mL of blood samples were collected from all the study groups. Blood was collected in tubes without anticoagulant for serum separation. The tubes were kept at room temperature for a minimum of 90 min and then centrifuged at 3,000 rpm for 10 min. C-reactive protein (CRP), which is synthesized in the liver and which serves as a marker of inflammation, was measured using a Toshiba 120FR NEO chemistry analyzer (Toshiba Co., Japan). Complement C3 was also measured similarly, and the data is presented as a percentage of baseline values.

Substance: ISIS 461756: 5-10-5 MOE gapmer which targets murine C1 inhibitor mRNA, AAAGTGGTTGATACCCTGGG; SEQ ID NO: 2245 (sugars from the 5' end e5 d10 e5, backbone and methylation of C not given here)
- Percent inhibition of C1-INH mRNA expression compared to the untreated PBS control (C1-INH mRNA): 76%
- C1-INH mRNA expression (C1-INH mRNA; mouse liver, 12.5 mg/kg ISIS 461756 s.c. twice a week): significantly reduced C1-INH mRNA expression
- Percent inhibition of PKK mRNA expression compared to the untreated PBS control (PKK mRNA [1]): 0%
- Percent change in vascular permeability compared to the untreated PBS control, Colon [2]: 13%
- Percent change in vascular permeability compared to the untreated PBS control, Feet [2]: 70%
- Percent change in vascular permeability compared to the untreated PBS control, Intestines [2]: 27%

Substance: ISIS 141923: control oligonucleotide, 5-10-5 MOE gapmer with no known murine target, CCTTCCCTGAAGGTTCCTCC; SEQ ID NO: 2246 (sugars from the 5' end e5 d10 e5, backbone and methylation of C not given here) [reference compound]
- OD600 nm of Evans Blue dye, Colons [3]: 0.44
- OD600 nm of Evans Blue dye, Ears [3]: 0.08
- OD600 nm of Evans Blue dye, Feet [3]: 0.14
- OD600 nm of Evans Blue dye, Intestines [3]: 0.29
- Percent inhibition of C1-INH mRNA expression compared to the untreated PBS control (C1-INH mRNA): 79%
- Percent inhibition of PKK mRNA expression compared to the untreated PBS control (PKK mRNA [1]): 0%
- Percent change in vascular permeability compared to the untreated PBS control, Colon [2]: 2%
- Percent change in vascular permeability compared to the untreated PBS control, Feet [2]: 80%
- Percent change in vascular permeability compared to the untreated PBS control, Intestines [2]: 14%

Substance: mCes mCes mCes mCes mCes Tds Tds mCds Tds Tds Tds Ads Tds Ads Gds mCes mCes Aes Ges mCe [ISIS 546343]
- inhibition of human PKK mRNA (human PKK mRNA [4]): 97% and 91%
- IC50 (human PKK mRNA [5]): 400 nM
- human PKK mRNA inhibition (human PKK mRNA [6]): 46% and 66% and 86%
- inhibiting PKK mRNA and protein expression in primates (PKK mRNA [7]): effective for inhibiting PKK mRNA and protein expression
- PKK protein level reduction (%) in plasma relative to control levels (PKK protein; Day 17): 56%
- PKK protein level reduction (%) in plasma relative to control levels (PKK protein; Day 31): 74%
- PKK protein level reduction (%) in plasma relative to control levels (PKK protein; Day 45): 69%
- PKK protein level reduction (%) in plasma relative to control levels (PKK protein; Day 59): 70%
- PKK protein level reduction (%) in plasma relative to control levels (PKK protein; Day 73): 70%
- tolerability in primates [8]: tolerable in primates
- ALT [9]: 76 IU/L
- AST [9]: 49 IU/L
- Albumin [9]: 4.3 g/dL
- HCT [10]: 42%
- Hemoglobin [10]: 12.6 g/dL
- Platelets [10]: 373000 µL⁻¹
- RBC [10]: 5.5e+06 µL⁻¹
- WBC [10]: 14000 µL⁻¹
- Urine protein/creatinine ratio [11]: 0.01
- Plasma BUN [12]: 26.2 mg/dL
- Plasma Creatinine [12]: 1.0 mg/dL
- C3 (% of baseline) [13]: 60 % of baseline
- CRP [13]: 0.2 mg/dL
